The test system of data set [1] is NMDA induced convulsions in mice. Nature of the data set: inhibition of NMDA induced convulsions in mice. The conditions noted are these: Mus musculus, dose to protect 50 % of the animals from NMDA (intracerebroventricular) convulsions. Type of data set: in vivo. The text has this: In this test the ability of the compound to inhibit the generalized seizures induced by an intracerebroventricular injection of NMDA in mice was examined at a number of dose levels. […] This expressed as mg/kg is referred to as the ED50 value.

Data set [2] addresses T1, strychnine insensitive glycine binding site (NMDA receptor complex) (Rattus norvegicus, UniProt P35439).
T1 construct: from tissue
In words: affinity for strychnine insensitive glycine binding site. The following applies: for Ki: strychnine insensitive glycine binding site, read-out: pKi (converted).

In the next data set the test system is anaesthetised cats. Nature of the data set: adverse effects in anaesthetised cats. The class given is in vivo, cat. The following applies: doses up to 24 mg/kg. The text has this: (§1) The compounds of the invention are essentially non toxic at therapeutically useful doses.
The test system of another data set is conscious dogs. In words: adverse effects in conscious dogs. The class given is in vivo, dog. The following applies: doses up to 24 mg/kg.
From the text: as §1

The mark [3] stands for this setting: intravenous, read-out: ED50 i.v.

pKi: −log10 of the molar value. Where a name gives a salt, the structure may show the parent alone. Read-outs that look alike come from different tables or passages of the source.

As to `O=C([O-])c1[nH]c2cc(Cl)cc(Cl)c2c1/C=C1\CCN(c2ccccc2)C1=O.[Na+]` [Example 3, (E)4,6-dichloro-3-(2oxo-1-phenyl-pyrrolidin-3-ylidenemethyl) -1H-indole-2-carboxylic acid sodium salt], the ED50 in data set [1] (setting [3]) is 0.08 mg/kg; in data set [1] (oral, read-out: ED50 po), 3.83 mg/kg. Besides, the pKi in data set [2] was 7.29. As to `O=C(O)c1[nH]c2cc(Cl)cc(Cl)c2c1/C=C1\CCCN(c2ccccc2)C1=O` [Example 6, (E)4,6-dichloro-3-(2-oxo-1-phenyI-piperidin-3-ylidenemethyl)-1H-indole-2-carboxylic acid sodium salt], the ED50 stood at 0.09 mg/kg in data set [1] (setting [3]) and 7.5 mg/kg in data set [1] (oral, read-out: ED50 po). Besides, the Ki in data set [2] was 49 nM.

As for `O=C(O)c1[nH]c2cc(Cl)cc(Cl)c2c1/C=C1\CNN(c2ccccc2)C1=O` [Example 8, (E) 4,6-dichloro-3-(5oxy-1-phenyl-pyrazolidin-4ylidenemethyl)-1H-indole-2-carboxylic acid sodium salt], the ED50 in data set [1] (setting [3]) was determined as 0.1 mg/kg; in data set [1] (oral, read-out: ED50 po), 1.7 mg/kg. For the same compound, the “adverse affects when administered” value with anaesthetised cats and in the data set with conscious dogs was “no adverse affects” each time. Moreover, the Ki in data set [2] is 10 nM.

As to `Nc1ccc(N2NC/C(=C\c3c(C(=O)O)[nH]c4cc(Cl)cc(Cl)c34)C2=O)cc1` [Example 10, (E) 4,6dichloro-3-[(5-oxo-1-(4-aminophenyl))pyrazolidin-4-ylidenemethyl]-1H-indole-2-carboxylic acid hydrochloride salt], the ED50 in data set [1] (setting [3]) amounted to 0.1 mg/kg; in data set [1] (oral, read-out: ED50 po), 1.7 mg/kg. Besides, in data set [2], the Ki was 14.8 nM. `O=C(O)c1[nH]c2cc(Cl)cc(Cl)c2c1/C=C1\NC(=O)N(c2ccccc2)C1=O` [Example 12, (Z) 4,6-Dichloro-3-(2,5dioxo-1-phenyl-imidazolidin-4-ylidenemethyl)-l H-indole-2-carboxylic acid]: the Ki in data set [2] is 37.2 nM. Same read-out and setting: with `O=C(O)c1[nH]c2cc(Cl)cc(Cl)c2c1/C=C1/NC(=O)N(c2ccccc2)C1=O` [Example 14, (E) 4,6Dichloro-3-(2.5-dioxo-1-phenyl-imidazolidin-4-ylidenemethyl)-1H-indole-2-carboxylic acid] the figure was 74.1 nM. Regarding `CC(=O)Nc1ccc(N2NCC(=Cc3c(C(=O)O)[nH]c4cc(Cl)cc(Cl)c34)C2=O)cc1` [Example 18, 4.6-Dichloro-3-[5-oxo1-(4-acetylamino-phenyl)-pyrazolidin-4-ylidenemethyl]-1H-indole-2-carboxylic acid], the Ki in data set [2] was 20 nM. In the case of `NC(=O)Nc1ccc(N2NCC(=Cc3c(C(=O)O)[nH]c4cc(Cl)cc(Cl)c34)C2=O)cc1` [Example 20, 4,6-Dichloro-3-[5-oxo-1-(4-ureido-phenyl)-pyrazolidin-4-ylidenemethyl]-1H-indole-2-carboxylic acid], the Ki in data set [2] was 20.4 nM. The same measure, in the same setting: with `CS(=O)(=O)Nc1ccc(N2NCC(=Cc3c(C(=O)O)[nH]c4cc(Cl)cc(Cl)c34)C2=O)cc1` [Example 22, 4,6Dichloro-3-[1-(4-methylsulfamidophenyl)-5-oxo-pyrazolidin4-ylidenemrthyl]-1H-indole-2-carboxylic acid] the figure was 21.9 nM; with `CN1C/C(=C\c2c(C(=O)O)[nH]c3cc(Cl)cc(Cl)c23)C(=O)N1c1ccccc1` [Example 23, (E) 3[(2-methyl-5-oxo-1-phenyl)pyrazolidin-4-ylidenemethyl]-4,6-dichloro-1H-indole-2-carboxylic acid], 34.7 nM; with `O=C(O)c1[nH]c2cc(Cl)cc(Cl)c2c1C=C1CON(c2ccccc2)C1=O` [Example 26, 4,6-Dichloro-3-(3-oxo-2-phenyl-isoxazolidin-4-ylidenemethyl)-1H-indole-2-carboxylic acid], 75.9 nM. With `Nc1cccc(N2NC/C(=C\c3c(C(=O)O)[nH]c4cc(Cl)cc(Cl)c34)C2=O)c1` [Example 27, (E) 4,6dichloro-3[(5-oxo-1-(3-aminophenyl))pyrazolidin-4-ylidenemethyl]-1H-indole-2-carboxylic acid hydrochloride salt], the Ki in data set [2] was 20 nM. On to `O=C(O)c1[nH]c2cc(Cl)cc(Cl)c2c1/C=C1\CC(=O)N(c2ccccc2)C1=O` [Example 28, (E) 4,6dichloro-3-(2.5-dioxo-1-phenyl-pyrrolidin-3-ylidenemethyl)-1H-indole-2-carboxylic acid], for which the Ki in data set [2] is 41.7 nM. `O=C(O)c1[nH]c2cc(Cl)cc(Cl)c2c1/C=C1\CNN(c2cccc3ccccc23)C1=O` [Example 34, (E) 4,6-dichloro-3(5-oxo-1(1-naphthyl)-pyrazolidin-4-ylidenemethyl)-1H-indole-2-carboxylic acid]: the Ki in data set [2] is 49 nM.

The values above are taken from patent publication US5760059A, “Indole derivatives” (Glaxo Wellcome SpA, priority 1993, dated 1998).
